Source: patent publication US9073821B2, “Hydroxamic acid derivative” (priority 2010, dated 2015)
Values after ≈ are worked out from the molar mass of the structure shown. Read-outs that look alike come from different tables or passages of the source.

What was measured:
[1] = biological target: Pseudomonas aeruginosa LpxC enzyme (Pseudomonas aeruginosa (strain ATCC 15692 / DSM 22644 / CIP 104116 / JCM 14847 / LMG 12228 / 1C / PRS 101 / PAO1), UniProt P47205); assay: biochemical; type: biochemical
E. coli LpxC enzyme = E. coli LpxC enzyme (Escherichia coli (strain K12), UniProt P0A725); assay: Inhibitory activity on E. coli LpxC enzyme (fluorescamine assay); type: biochemical; details: Table 4
Sequence of E. coli LpxC enzyme (P0A725 whole entry): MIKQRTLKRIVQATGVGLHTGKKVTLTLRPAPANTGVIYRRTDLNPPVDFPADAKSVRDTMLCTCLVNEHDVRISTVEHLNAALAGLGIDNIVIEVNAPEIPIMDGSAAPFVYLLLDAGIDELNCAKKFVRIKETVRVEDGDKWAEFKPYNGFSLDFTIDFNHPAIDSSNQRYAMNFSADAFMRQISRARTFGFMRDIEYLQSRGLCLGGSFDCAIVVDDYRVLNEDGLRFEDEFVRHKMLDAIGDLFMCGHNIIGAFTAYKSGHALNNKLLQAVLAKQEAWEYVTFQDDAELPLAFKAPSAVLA
Protocol: Test 2: Evaluation of the Inhibitory Activity on E. coli LpxC Enzyme
An inhibition curve was constructed for each test compound by performing the aforementioned reaction at varying concentrations of the test compound. From this inhibition curve, the concentration of the test compound at which the formation of the reaction product was suppressed by 50% was determined as the IC50 of the test compound, which was an index for the inhibitory activity on E. coli LpxC enzyme.

E. coli strain ATCC25922 = assay: Antimicrobial activity, MIC by broth microdilution; type: cell-based; details: Escherichia coli, Table 4, 35° C., 18 hours, read-out: E. coli ATCC 25922 strain MIC
From the text: (§1) Test 3: Evaluation of Antimicrobial Activity For minimum inhibitory concentration (MIC) measurement, the following broth microdilution method was applied as adapted from the standard procedure recommended by the CLSI (Clinical and Laboratory Standards Institute). The bacteria used were Pseudomonas aeruginosa strain TS88 (clinical isolate), E. coli strain ATCC25922, and Klebsiella pneumoniae strain ATCC13883. After culture overnight on a heart infusion agar medium, the cells of a test bacterium were scraped off and suspended to give a turbidity of level 0.5 on the McFarland scale; the suspension was then diluted 10 fold to prepare an inoculum solution. A 0.005 mL aliquot of the inoculum solution was inoculated in a cation-adjusted Mueller-Hinton broth medium containing a test compound and cultured at 35° C. for 18 hours. A minimum drug concentration at which no cell growth was visible to the naked eye was designated as MIC.

[2] = tested on: Klebsiella pneumoniae strain ATCC13883; assay: Antimicrobial activity, MIC by broth microdilution; type: cell-based; details: Table 4, 35° C., 18 hours, read-out: Klebsiella pneumoniae ATCC 13883 strain MIC
From the text: as §1

[3] = tested on: Pseudomonas aeruginosa strain TS88 (clinical isolate); assay: Antimicrobial activity, MIC by broth microdilution; type: cell-based; details: Table 4, 35° C., 18 hours, read-out: Pseudomonas aeruginosa TS88 strain MIC
From the text: as §1

[4] = Table 4, read-out: Pseudomonas aeruginosa LpxC IC50
[5] = inhibitory activity on Pseudomonas aeruginosa LpxC enzyme, class symbols A/B/C, read-out: Enzyme inhibitory activity

| SMILES | IC50 [1, 4] [nM] | IC50 [1, 5] [nM] | IC50 (E. coli LpxC enzyme) [nM] | MIC (E. coli strain ATCC25922) [µg/mL] | MIC [2] [µg/mL] | MIC [3] [µg/mL] | IC50 [1] [nM] |
| --- | --- | --- | --- | --- | --- | --- | --- |
| CNC(=O)C(C(=O)NO)N(C)C(=O)c1ccc(C#Cc2ccc(CNC3CC3)cc2)cc1 (centres unmarked) [Compound 301, 2-[{[4-({4-[(Cyclopropylamino)methyl]phenyl}ethynyl)phenyl]carbonyl}(methyl)amino]-n-hydroxy-n′-methylpropanediamide] | 6.1 | < 10 | 100 | 1 (≈ 2.3 µM) | 4 (≈ 9.21 µM) | 1 (≈ 2.3 µM) | – |
| CNC(=O)[C@@](C)(C(=O)NO)N(C)C(=O)c1ccc(C#Cc2coc(COC)c2)cc1 [Compound 550, (2S)-N-hydroxy-2-{[(4-{[5-(methoxymethyl)furan-3-yl]ethynyl}phenyl)carbonyl](methyl)amino}-N′,2-dimethylpropanediamide] | 1.6 | – | 12 | 0.25 (≈ 0.605 µM) | 1 (≈ 2.42 µM) | 0.5 (≈ 1.21 µM) | < 10 |
| CNC(=O)C(C)(C(=O)NO)N(C)C(=O)c1ccc(C#Cc2coc(COC)c2)cc1 (centres unmarked) [Compound 528, N-hydroxy-2-{[(4-{[5-(methoxymethyl)furan-3-yl]ethynyl}phenyl)carbonyl](methyl)amino}-N′,2-dimethylpropanediamide] | 4.8 | – | 25 | 0.25 (≈ 0.605 µM) | 2 (≈ 4.84 µM) | 0.5 (≈ 1.21 µM) | < 10 |
| CNC(=O)C(C(=O)NO)N(C)C(=O)c1ccc(/C=C/C#Cc2ccc(CNC3CC3)cc2)cc1 (centres unmarked) [Compound 477, 2-[({4-[(1E)-4-{4-[(cyclopropylamino)methyl]phenyl}but-1-en-3-yn-1-yl]phenyl}carbonyl)(methyl)amino]-N-hydroxy-N′-methylpropanediamide] | 4.3 | < 10 | 33 | 0.25 (≈ 0.543 µM) | 1 (≈ 2.17 µM) | 0.5 (≈ 1.09 µM) | – |
| CCOc1ccc(-c2ccc(C(=O)N(C)[C@@](C)(C(=O)NC)C(=O)NO)cc2)cc1 [Compound 399, (2S)-2-{[(4′-ethoxybiphenyl-4-yl)carbonyl](methyl)amino}-N-hydroxy-N′,2-dimethylpropanediamide] | – | – | 13 | 0.125 (≈ 0.313 µM) | 0.5 (≈ 1.25 µM) | 0.5 (≈ 1.25 µM) | – |
| CNC(=O)[C@@](C)(C(=O)NO)N(C)C(=O)c1ccc(C#Cc2ccc(CN3CC(C)(OC)C3)cc2)cc1 [Compound 558, (2S)-N-hydroxy-2-[{[4-({4-[(3-methoxy-3-methylazetidin-1-yl)methyl]phenyl}ethynyl)phenyl]carbonyl}(methyl)amino]-N′,2-dimethylpropanediamide] | – | – | 235 | 0.5 (≈ 1.02 µM) | 2 (≈ 4.06 µM) | 1 (≈ 2.03 µM) | – |
| CNC(=O)[C@@](C)(C(=O)NO)N(C)C(=O)c1ccc(C#Cc2ccc(CN3CCOCC3)cc2)cc1 [Compound 561, (2S)-N-hydroxy-N′,2-dimethyl-2-{methyl[(4-{[4-(morpholin-4-ylmethyl)phenyl]ethynyl}phenyl)carbonyl]amino}propanediamide] | – | – | 30 | 0.125 (≈ 0.261 µM) | 0.5 (≈ 1.04 µM) | 0.5 (≈ 1.04 µM) | – |
| CNC(=O)[C@@](C)(C(=O)NO)N(C)C(=O)c1ccc(C#Cc2ccc(CCN3CCOCC3)cc2)cc1 [Compound 410, (2S)-N-hydroxy-N′,2-dimethyl-2-(methyl {[4-({4-[2-(morpholin-4-yl)ethyl]phenyl}ethynyl)phenyl]carbonyl}amino)propanediamide] | – | – | 78 | 0.25 (≈ 0.508 µM) | 1 (≈ 2.03 µM) | 1 (≈ 2.03 µM) | – |
| CNC(=O)[C@@](C)(C(=O)NO)N(C)C(=O)c1ccc(C#Cc2ccc(CNCCF)cc2)cc1 [Compound 554, (2S)-2-[({4-[(4-{[(2-fluoroethyl)amino]methyl}phenyl)ethynyl]phenyl}carbonyl)(methyl)amino]-N-hydroxy-N′,2-dimethylpropanediamide] | – | – | 120 | 0.5 (≈ 1.1 µM) | 1 (≈ 2.2 µM) | 0.5 (≈ 1.1 µM) | – |
